Data from patent US8772268B2, “Bisphosphonamidate prodrugs and uses thereof” (The Johns Hopkins University, priority 2010, dated 2014).
Where “and” joins values, the source holds several entries; their conditions need not be identical. Identical values can stand only once. Like-named read-outs stand apart in the source and are kept apart here.

Experiments:
HCC-2998 = experiment: NCI-60 DTP Human Tumor Cell Line Screen; format: cell-based; conditions: HCC-2998, Colon Cancer, 48 h
SNB-75 = experiment: NCI-60 DTP Human Tumor Cell Line Screen; format: cell-based; conditions: SNB-75, CNS Cancer, 48 h
SK-MEL-2 = experiment: NCI-60 DTP Human Tumor Cell Line Screen; format: cell-based; conditions: SK-MEL-2, Melanoma, 48 h
EKVX = experiment: NCI-60 DTP Human Tumor Cell Line Screen; format: cell-based; conditions: Non-Small Cell Lung Cancer, 48 h
A549 NSCLC cells = experiment: Trypan blue cell count assay, A549; conditions: for EC50: read-out: EC50 (decreased cell number by 50% compared to control), A549, trypan blue
Description: A549 NSCLC cells were plated at 1.7×10^4 cells per well in flat bottom 12-well plates. Cells were dosed as described above. At 24, 48 or 72 hours following drug treatment, the media was collected, and the cells were washed with 200 μL PBS. Each well was trypsinized with 200 μL trypsin for 3-5 min. The trypsin reaction was quenched with an equal volume of media. All supernatants and washes were combined and spun at 1,500 rpm for 5 min. Supernatant was decanted, and the cells were resuspended in 200 μL media. The cells were diluted 1:1 in 0.04% trypan blue and counted using a cytometer. The absolute number of cells was determined at each drug concentration. The cell number for each concentration was converted to percent of control for each time point, and plotted using GraphPad Prism 4.0. The EC50 was calculated as the concentration of drug that caused a 50% decrease in number of cells compared to control.
The number of viable cells at each dose was determined at 0, 24, 48 and 72 hours following drug treatment and plotted as a percent of control (FIG. 6A).

A498 = experiment: NCI-60 DTP Human Tumor Cell Line Screen; format: cell-based; conditions: A498, Renal Cancer, 48 h
SF-295 = experiment: NCI-60 DTP Human Tumor Cell Line Screen; format: cell-based; conditions: SF-295, CNS Cancer, 48 h
OVCAR-4 = experiment: NCI-60 DTP Human Tumor Cell Line Screen; format: cell-based; conditions: OVCAR-4, Ovarian Cancer, 48 h
SF-268 = experiment: NCI-60 DTP Human Tumor Cell Line Screen; format: cell-based; conditions: SF-268, CNS Cancer, 48 h
UO-31 = experiment: NCI-60 DTP Human Tumor Cell Line Screen; format: cell-based; conditions: UO-31, Renal Cancer, 48 h
NCI-H460 = experiment: NCI-60 DTP Human Tumor Cell Line Screen; format: cell-based; conditions: NCI-H460, Non-Small Cell Lung Cancer, 48 h
A549/ATCC = experiment: NCI-60 DTP Human Tumor Cell Line Screen; format: cell-based; conditions: Non-Small Cell Lung Cancer, 48 h
[1] = In vivo tolerance study, I.V. dosing (tail vein); design: species or system Balb/c mice
Description: Ten Balb/c mice were split into three groups: untreated, vehicle and clodronate prodrug. Untreated mice received no treatment or injection. The vehicle was 100 μL 10% cremaphor in ddH20 injected into the tale vein. 100 μL of 3 mM Clodronate Prodrug dissolved in 10% cremaphor in ddH20. (100 μL of 3 mM is about 14 mg/kg).

SK-MEL-5 = experiment: NCI-60 DTP Human Tumor Cell Line Screen; format: cell-based; conditions: SK-MEL-5, Melanoma, 48 h
SF-539 = experiment: NCI-60 DTP Human Tumor Cell Line Screen; format: cell-based; conditions: SF-539, CNS Cancer, 48 h
OVCAR-3 = experiment: NCI-60 DTP Human Tumor Cell Line Screen; format: cell-based; conditions: OVCAR-3, Ovarian Cancer, 48 h
[2] = system: PIP3 (prostate) cancer cell line; experiment: MTS cell proliferation assay, PIP3; format: cell-based
Description: Cell proliferation was determined using the CellTiter 96 Aqueous One Solution Cell Proliferation Assay MTS assay. A549 NSCLC cells were plated at 1.5×10^3 cells per well in flat bottom 96 well plates in 99 μL of media and allowed to adhere overnight. The drugs were serially diluted in 100% DMSO. For each drug treatment group, 1 μL of a 100× stock solution was added to each well for a final DMSO concentration of 1%. Cells were treated for 24, 48 or 72 hours. Cells were incubated with MTS dye (20 μL well^−1) for 40 min to 2 h. Absorbance at 490 nm was determined using a SpectraMax M2 (Molecular Devices) plate reader. The percent cell proliferation was calculated by converting the experimental absorbance to percentage of control, which was then plotted vs. drug concentration. The IC50 values were determined using a non-linear dose-response analysis in GraphPad Prism version 4.0. The IC50 is defined as the concentration of drug needed to cause a 50% decrease in proliferation compared to vehicle control.
The activity of Clodronate prodrug (14) was tested against other cell lines, include prostate (PIP3) and breast (MDA-MB-453) cancer cells lines. Cell proliferation was determined using the CellTiter 96 Aqueous One Solution Cell Proliferation Assay MTS assay as discussed above. Results are shown in FIG. 22 and in the table below.

MDA-MB-435 = experiment: NCI-60 DTP Human Tumor Cell Line Screen; format: cell-based; conditions: MDA-MB-435, Melanoma, 48 h

SMILES: CN(CCCCCl)P(=O)(OCc1ccc([N+](=O)[O-])cc1)C(Cl)(Cl)P(=O)(OCc1ccc([N+](=O)[O-])cc1)N(C)CCCCCl (centres unmarked) [compound 14]
- Log10GI50 (HCC-2998): −5.25
- Log10LC50 (HCC-2998): −4.46
- Log10TGI (HCC-2998): >−4.00
- Log10GI50 (SNB-75): −5.65
- Log10LC50 (SNB-75): >−4.00
- Log10TGI (SNB-75): −5.17
- Log10GI50 (SK-MEL-2): −5.60
- Log10LC50 (SK-MEL-2): >−4.00
- Log10TGI (SK-MEL-2): −5.18
- Log10GI50 (EKVX): −5.50
- Log10LC50 (EKVX): >−4.00
- Log10TGI (EKVX): >−4.00
- new growth in fresh media without drug (A549 NSCLC cells; 72 h treatment with 30, 100 and 300 μM, then 48 h drug-free): No new growth was observed
- cell viability reduced by (A549 NSCLC cells; A549, 24 h, highest drug concentration tested): 57%
- EC50 (trypan blue) fold higher than IC50 (MTS) (A549 NSCLC cells; A549, 48 h): ~1.6 fold
- viability of A549 cells, of control (A549 NSCLC cells; higher doses over 24 h): above 50%
- EC50 (A549 NSCLC cells; 48 h): 19 ± 4 µM
- EC50 (A549 NSCLC cells; 72 h): 16 ± 1 µM
- Log10GI50 (A498): −5.74
- Log10LC50 (A498): >−4.00
- Log10TGI (A498): −5.17
- Log10GI50 (SF-295): −5.61
- Log10LC50 (SF-295): >−4.00
- Log10TGI (SF-295): −4.77
- Log10GI50 (OVCAR-4): −5.54
- Log10LC50 (OVCAR-4): >−4.00
- Log10TGI (OVCAR-4): >−4.00
- Log10GI50 (SF-268): −5.55
- Log10LC50 (SF-268): >−4.00
- Log10TGI (SF-268): >−4.00
- Log10GI50 (UO-31): −5.76
- Log10LC50 (UO-31): >−4.00
- Log10TGI (UO-31): >−4.00
- Log10GI50 (NCI-H460): −5.42
- Log10LC50 (NCI-H460): >−4.00
- Log10TGI (NCI-H460): >−4.00
- Log10GI50 (A549/ATCC): −5.37
- Log10LC50 (A549/ATCC): >−4.00
- Log10TGI (A549/ATCC): >−4.00
- Mouse weight ([1]; Mar. 21, 2011, i.v. 100 μL of 3 mM (about 14 mg/kg), individual mice, listed as cloprodrug): 15.9 g and 14.5 g and 15.6 g
- Δ in weight ([1]; Mar. 21 to Mar. 28, 2011, i.v. about 14 mg/kg, individual mice, listed as cloprodrug): 2.2 g and 2.7 g and 0.6 g
- Mouse weight ([1]; Mar. 23, 2011, i.v. about 14 mg/kg, individual mice, listed as cloprodrug): 17.6 g and 16.4 g and 16.2 g
- Mouse weight ([1]; Mar. 25, 2011, i.v. about 14 mg/kg, individual mice, listed as cloprodrug): 18.2 g and 16.8 g and 16.4 g
- Mouse weight ([1]; Mar. 28, 2011, i.v. about 14 mg/kg, individual mice, listed as cloprodrug): 18.1 g and 17.2 g and 16.2 g
- behavior ([1]; i.v. about 14 mg/kg): no unusual behavior observed
- difference in weight between the three treatment groups ([1]; i.v. about 14 mg/kg vs vehicle and untreated): no significant difference in weight
- Log10GI50 (SK-MEL-5): −5.69
- Log10LC50 (SK-MEL-5): −5.05
- Log10TGI (SK-MEL-5): −5.37
- Log10GI50 (SF-539): −5.44
- Log10LC50 (SF-539): >−4.00
- Log10TGI (SF-539): >−4.00
- Log10GI50 (OVCAR-3): −5.40
- Log10LC50 (OVCAR-3): >−4.00
- Log10TGI (OVCAR-3): >−4.00
- EC50 [2]: 3 µM
- Log10GI50 (MDA-MB-435): −5.55
- Log10LC50 (MDA-MB-435): >−4.00
- Log10TGI (MDA-MB-435): −4.65
